From US20250163044A1, “COMPOUNDS” (PSYLO PTY LTD, priority 2021, published 2025)

Legend:
5-HT2B receptor = biological target: T1, 5-HT2B receptor (Homo sapiens, UniProt P41595); assay: FLIPR Ca2+ flux functional assay, agonist activity at 5-HT2B; assay type: cell-based; details: CHO-K1 cells, Ca2+ flux; read-out: 5-HT2B EC50
T1 construct: host or cells: CHO-K1
Method in brief: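 Stably transfected cells (HEK293 for 5-HT2A/2C, CHO-K1 for 5-HT2B) loaded 50 min at 37° C with Fluo-4 Direct dye plus 2.5 mM probenecid (final). Compounds tested as 10-point serial dilutions (3-fold; references 4-fold) and calcium fluorescence read on FLIPR Tetra after addition.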

Male ICR mice = assay: Acute restraint stress - tail suspension test (TST); assay type: in vivo; details: ICR mice after 5 h acute restraint stress, IP, 10 min before test; P-3 3, 10 mg/kg; P-8 3, 10, 30 mg/kg
Protocol: Male ICR mice (23±3 g) were purchased from BioLASCO (Taipei, Taiwan) at 4-5 weeks of age and allowed 5-7 days to acclimate to the animal research facility at Pharmacology Discovery Services (Taipei, Taiwan). Mice were housed in groups of 10 in a large cage (47×25×15 cm) on a 12-hour light cycle (lights on: 0700) and provided ad libitum food and water except during acute restraint stress and tail-suspension testing. Temperature was maintained at 20-24° C., and all rooms (colony and testing rooms) had similar lighting intensity. All aspects of this work including housing, experimentation, and animal disposal were performed in accordance with the “Guide for the Care and Use of Laboratory Animals: Eighth Edition” (The National Academies Press, Washington, DC, 2011) in a facility accredited by the Association for Assessment and Accreditation of Laboratory Animal Care. […]
Tail Suspension Test (TST) Procedure: Mice were individually suspended on the edge of a shelf, 58 cm above a tabletop, using adhesive tape placed approximately 1 cm from the tip of the tail, for a total duration of 7 minutes. Using a stopwatch, the experimenters blinded to treatment groups recorded the duration of immobility (defined as hanging passively and motionless) during the 5 minutes spanning from 2-7 minutes. The data from 0-2 minutes was not recorded. […]

C57BL/6J mice = assay: Biotelemetry and head-twitch response (HTR) experiments; assay type: in vivo, Mice (C57BL/6J males); details: male C57BL/6 mice, SC, several doses (0.03 to 30 mg/kg)
From the text: Mice (C57BL/6J males) were purchased from the Jackson Laboratory (Bar Harbor, ME, USA) at 5-6 weeks of age and allowed at least 1-2 weeks to acclimate to the NIDA, Intramural Research Program (IRP), animal research facility in Baltimore, MD, USA. The animal facility is fully accredited by the Association for the Assessment and Accreditation of Laboratory Animal Care, and all procedures were approved by the NIDA IRP Animal Care and Use Committee. Mice were initially group housed 3-5 per cage during acclimation and housed in a 12 h light-dark cycle throughout the study, with lights on at 0700 h. Food and water were available ad libitum except during testing. Cohorts of 20-24 mice were used for each test drug. The mice were subjected to experimental testing once every 1-2 weeks for 2-3 months to complete dose-effect curves and antagonist experiments. A minimum of 7 days between treatments was utilized to avoid any tolerance to effects of repeated drug administration. All drug doses represent the weight of the salt dissolved in 0.9% saline vehicle. Mice were tested first in dose-response studies to assess the effects of each compound at doses from 0.03 to 30 mg/kg s.c. and were subsequently tested in antagonist reversal studies utilizing pretreatment with M100907 and WAY100635. All experiments were conducted from 0900 to 1700 local time during the light phase, as sensitivity of rodents to other tryptamine psychedelics is diurnal, with maximal HTR observed in the middle of the light phase. Experiments were run during the light phase also to avoid any potential influence of melatonin receptor activity on HTR as melatonin and related agonists are known to reduce HTR induced by DOI in rats. For each experiment, mice were acclimated to the testing room in their home cage for at least 1 h prior to experimental sessions. Behavioral test sessions were carried out in Tru Scan mouse locomotor arenas equipped with photobeam arrays (Coulbourn Instruments, Holliston, MA, USA), which were modified with cylindrical inserts and transparent floors useful in detecting mouse HTR.
Subcutaneous Temperature Transponder Implants. At least 1 week prior to the start of the experiments, mice received s.c. implanted temperature transponders (14×2 mm, model IPTT-300, Bio Medic Data Systems, Inc., Seaford, DE, USA) under brief isoflurane anesthesia. Mice were single housed post implant for the remainder of the study to protect the transponder from removal by cage mates. Temperature was determined noninvasively using a handheld receiver that is sensitive to signals emitted from the implanted transponders.
Prior to each experiment, mouse body weight and temperature were recorded. Mice were then placed into testing chambers for acclimation. In dose-response studies, after a brief 5 min acclimation, mouse body temperature was recorded for baseline measurement, mice received s.c. injection of test substance or vehicle, and animals were returned to the testing arena for 30 min. During the session, locomotor activity was monitored via photobeam tracking of movements in the horizontal plane to yield distance traveled in centimeter. HTR was monitored by the analysis of GoPro Hero Black 7 video recordings (120 frames per sec and 960p resolution) using a commercially available software package from Clever Sys Inc. (Reston, VA, USA). 82 Post-treatment body temperature values were also recorded, and temperature data are represented as change from pretreatment baseline.
In antagonist reversal experiments, mice received a s.c. injection of either receptor antagonists or vehicle and were returned to the testing chamber for 30 min. During this period, locomotor activity was monitored to examine the potential effects of antagonist treatment on general behavior or movement. At 30 min after antagonist administration, mice were given test drug or vehicle and returned to the chambers for an additional 30 min of video recording used for analyses. […]

T1 sequence (P41595 whole entry): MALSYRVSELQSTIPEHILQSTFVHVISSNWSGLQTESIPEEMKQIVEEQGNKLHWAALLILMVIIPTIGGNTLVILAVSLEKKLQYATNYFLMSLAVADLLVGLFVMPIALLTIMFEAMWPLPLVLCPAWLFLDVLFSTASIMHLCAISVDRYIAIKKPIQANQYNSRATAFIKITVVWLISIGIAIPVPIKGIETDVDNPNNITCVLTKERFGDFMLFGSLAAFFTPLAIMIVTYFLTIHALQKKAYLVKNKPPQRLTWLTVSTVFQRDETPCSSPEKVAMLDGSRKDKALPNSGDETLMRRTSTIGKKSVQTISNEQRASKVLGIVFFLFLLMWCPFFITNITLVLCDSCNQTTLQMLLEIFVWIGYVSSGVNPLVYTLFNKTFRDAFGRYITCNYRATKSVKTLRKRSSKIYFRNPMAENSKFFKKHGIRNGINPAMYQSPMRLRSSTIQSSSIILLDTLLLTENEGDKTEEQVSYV

COc1ccc2[nH]nc(CCN(C)C)c2c1 [Example P-8, 2-(5-methoxy-1H-indazol-3-yl)-N,N-dimethylethan-1-amine]
EC50 (5-HT2B receptor): > 10 µM | Immobility time in tail suspension test (Male ICR mice): decrease the immobility time

COc1cnc2[nH]cc(CCN(C)C)c2c1 [Example P-3, 2-(5-methoxy-1H-pyrrolo[2,3-b]pyridin-3-yl)-N,N-dimethylethan-1-amine]
Head-twitch response (HTR) (C57BL/6J mice): not promoting increased head-twitch response | Tolerability (temperature, locomotor activity) (C57BL/6J mice): well-tolerated | Immobility time in tail suspension test (Male ICR mice): decrease the immobility time
